# Measurements as given in patent US12157750B2, “Bright targetable red CA2+ indicators” (HOWARD HUGHES MEDICAL INSTITUTE, priority 2019, dated 2024).
# Several values for one entry are separate records, joined by “and”; a condition that tells them apart may be missing. Equal values may be shown once. Read-outs that look alike come from different tables or passages of the source.
# Experiments:
# [1] = test system: Primary rat hippocampal neurons; assay: Calcium indicators characterization in primary neuron culture (evoked action potentials); type: cell-based; settings: for ΔF/F0, single AP: 1 AP
# Procedure: Synaptic blockers (10 μM CNQX, 10 μM CPP, 10 μM GABAZINE, and 1 mM MCPG) were added to block ionotropic glutamate, GABA, and metabotropic glutamate receptors.^21 Each measurement was performed on 3 to 5 wells replicates.
# Wide-field imaging was performed on an inverted Nikon Eclipse Ti2 microscope equipped with a SPECTRA X light engine (Lumencore), 20× objective (NA=0.75, Nikon), and imaged onto a scientific CMOS camera (Hamamatsu ORCA-Flash 4.0). […] A quad bandpass filter (set number: 89000, Chroma) was used along with the appropriate color band from the SPECTRA X light source to image 13AM.
# [2] = test system: primary cilium in hRPE1 cells expressing 5HT6-HaloTag; settings: Ca2+ uncaging with 405 nm light
# Procedure: Tet-on 5HT6-HaloTag RPE cells were plated in 8-well Labtek II chambers (Invitrogen) in 10% FBS DMEM:F12 media. The next day, the cells were serum deprived with 0% FBS DMEM:F12 medium with 100 ng/ml doxycycline to induce 5HT6-HaloTag expression. After 24 h of serum deprivation and doxycycline induction, cells were labeled with 1 μM 13AM overnight. After rinsing in DMEM:F12, the cells were loaded with 4 μM NP-EGTA, AM (ThermoFisher N6803) for 1 h. The medium was then replaced by DMEM Fluorobrite (ThermoFisher) for imaging in a 37° C., 5% CO2 chamber on an inverted Zeiss 880 with Airyscan. For each single cilium, 405 nm laser light (100%, 15 mW, 3s) uncaged free Ca^2+ from NP-EGTA in a 50-70 μm^2 area. Airyscan images were acquired at 0.5-0.8 s/stack for a total of 100 stacks (50-80 s) with 633 laser lines (13AM). Calcium uncaging was performed at the 50th stack. Change in intensity values were calculated in ImageJ using a maximum intensity projection series.
# [3] = Calcium titrations in EGTA buffer system (ΔF/F0, Kd determination); type: binding; settings: for Kd: in vitro Ca2+ binding; for ΔF/F0: Ca2+-dependent change in fluorescence over baseline
# Procedure: (§1) All measurements were taken at ambient temperature (23±2° C.). […] Spectroscopy was performed using 1-cm path length quartz cuvettes (Starna). Absorption measurements were recorded on a Cary Model 100 spectrometer (Varian). Fluorescence measurements spectra were recorded on a Cary Eclipse fluorometer (Varian). Images were processed in ImageJ/Fiji. Data was analyzed and graphs were plotted using Prism (GraphPad). Movie renderings were done using Imaris (Bitplane)
# (§2) Example 15: UV-Vis and Fluorescence Spectroscopy, Kd Determination. UV-Vis and fluorescence spectra were measured in a commercial EGTA buffer system (Invitrogen) following the associated protocol. […] For calcium titrations of the HaloTag ligands in the presence of HaloTag protein, the dye was incubated with 1.5 eq of purified HaloTag protein ([…] solution in 75 mM NaCl, 50 mM Tris-HCl, pH 7.4) for 1 h at room temperature. Calcium titrations were then performed using the commercial EGTA buffer system to which 0.1 mg·mL^−1 CHAPS was added. All the calcium titrations were performed in duplicate.
# [4] = Quantum yield determination; type: physicochemical; settings: fluorescence quantum yield at saturating Ca2+
# Procedure: Example 16: Quantum Yield Determination. Absolute quantum yields (Φ) were measured using a Quantaurus-QY spectrometer (model C11374) from Hamamatsu. This instrument uses an integrating sphere to determine photons absorbed and emitted by a sample. Measurements were carried out using dilute samples (A<0.1) and self-absorption corrections were performed using the instrument software.^27
# [5] = UV-Vis and fluorescence spectroscopy; type: physicochemical; settings: in vitro; for λmax: first value of λmax/λem; for λem: second value of λmax/λem
# Procedure: as §1, §2
# [6] = test system: cultured neurons expressing NES-HaloTag-GFP; settings: cells expressing NES-HaloTag-GFP; same imaging conditions; normalized to GFP
# Procedure: Primary rat hippocampal neurons were prepared as described previously and infected with AAV viruses.^1 Stock solutions of the different calcium indicators were prepared at C=1 mM in DMSO containing 20% Pluronic F-127. Cultured neurons were incubated with the cell-permeant sensors at 37° C. for 30 min (7AM and Calcium Orange-AM) or 2 h (12AM and 13AM) before washing twice with imaging buffer containing the following: 145 mM NaCl, 2.5 mM KCl, 10 mM glucose, 10 mM HEPES, pH 7.4, 2 mM CaCl2), 1 mM MgCl2. Synaptic blockers (10 μM CNQX, 10 μM CPP, 10 μM GABAZINE, and 1 mM MCPG) were added to block ionotropic glutamate, GABA, and metabotropic glutamate receptors.^21 Each measurement was performed on 3 to 5 wells replicates.
# Wide-field imaging was performed on an inverted Nikon Eclipse Ti2 microscope equipped with a SPECTRA X light engine (Lumencore), 20× objective (NA=0.75, Nikon), and imaged onto a scientific CMOS camera (Hamamatsu ORCA-Flash 4.0). […]
# Brightness comparison: The brightness of 12AM, jRGECO1a and jRCaMP1b in neurons were compared under the same illumination conditions. The fluorescence emission in each field of view was background subtracted and normalized by the emission of the fused EGFP to account for differences in expression levels among neurons.
# HaloTag protein = HaloTag protein (Rhodococcus rhodochrous, UniProt P0A3G2, A155T/A167V/A172T/A224E/C128F/C176G/D78G/E160K/E257K/H272N/K175M/K195N/L47V/L88M/N227D/P291S/S2A/S58T/T264A/Y273L/Y87F); assay: Calcium titrations in the presence or absence of excess HaloTag protein; type: biochemical; settings: in vitro; saturating [Ca2+]
# Sequence of HaloTag protein (P0A3G2 other isoform, or with tags, fused parts or gaps with the stated changes): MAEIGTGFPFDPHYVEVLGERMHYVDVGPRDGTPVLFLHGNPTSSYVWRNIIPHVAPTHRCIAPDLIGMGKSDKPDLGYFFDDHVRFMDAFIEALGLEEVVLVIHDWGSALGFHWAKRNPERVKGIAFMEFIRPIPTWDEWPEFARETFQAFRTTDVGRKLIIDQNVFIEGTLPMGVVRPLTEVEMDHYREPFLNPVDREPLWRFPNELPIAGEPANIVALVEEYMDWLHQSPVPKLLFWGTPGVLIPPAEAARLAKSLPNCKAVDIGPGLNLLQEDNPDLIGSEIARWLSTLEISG
# Procedure: as §2
# [7] = known indicator, literature value (ref. 15); cited from earlier work
# [8] = known indicator, cited from earlier work
# [9] = known indicator, literature value (ref. 15); saturating Ca2+; cited from earlier work
# [10] = cultured hippocampal neurons loaded with AM ester
compound,measurement,setting,value
3″-BAPTA-JF646-HaloTag ligand tetra acetoxymethyl ester [Compound 13AM],"ΔF/F0, single AP",[1]; cultured hippocampal neurons expressing NES-HaloTag-GFP,0.11
same,ΔF/F0 across the entire cilium,[2],0.60
"O=C(O)CN(CC(=O)O)c1ccccc1OCCOc1cc(NC(=O)c2ccc(-c3c4ccc(=[N+]5CCC5)cc-4oc4cc(N5CCC5)ccc34)c(C(=O)[O-])c2)ccc1N(CC(=O)O)CC(=O)O [Compound 3, 5-BAPTA-JF549]",Kd,[3],190 nM
same,ΔF/F0,[3]; in vitro,2.3
same,ϕsat,[4],0.69
same,λmax,[5],554 nm
same,λem,[5],579 nm
"O=C(O)CN(CC(=O)O)c1ccccc1OCCOc1cc(NC(=O)C2CN(c3ccc4c(-c5ccccc5C(=O)[O-])c5ccc(=[N+]6CC(C(=O)Nc7ccc(N(CC(=O)O)CC(=O)O)c(OCCOc8ccccc8N(CC(=O)O)CC(=O)O)c7)C6)cc-5oc4c3)C2)ccc1N(CC(=O)O)CC(=O)O (stereo not drawn) [Compound 8, 3″,3″′-bisBAPTA-JF549]",Kd,[3],730 nM
same,ΔF/F0,[3]; in vitro,47.0
same,ϕsat,[4],0.70
same,λmax,[5],543 nm
same,λem,[5],566 nm
3″-BAPTA-JF549-HaloTag ligand tetra acetoxymethyl ester [Compound 12AM],"baseline fluorescence, brighter than jRCaMP1b",[6],3.6 fold
same,"baseline fluorescence, brighter than jRGECO1a",[6],7.8 fold
3″-BAPTA-JF549 tetra-acetoxymethyl ester [Compound 7AM],saturating number of APs,[1]; [10],40 APs
same,"ΔF/F0, single AP",[1]; [10],0.20
same,maximal ΔF/F0,"[1]; cultured hippocampal neurons loaded with AM ester, at saturation",0.80
same,brightness compared to cells loaded with 2AM,[1]; cultured neurons,10 ×
same,ΔF/F0 compared to cells loaded with 2AM,[1]; cultured neurons,10 ×
3″-BAPTA-JF549-HaloTag ligand [Compound 12],Kd,[3],130 nM
same,ΔF/F0,[3]; in vitro,9.5
same,ϕsat,[4],0.78
same,λmax,[5],553 nm
same,λem,[5],573 nm
"O=C(O)CN(CC(=O)O)c1ccccc1OCCOc1cc(NC(=O)C2C[N+](=c3ccc4c(-c5cc(C(=O)NCCOCCOCCCCCCCl)ccc5C(=O)[O-])c5ccc(N6CCC6)cc5oc-4c3)C2)ccc1N(CC(=O)O)CC(=O)O (stereo not drawn) [Compound 12, 3″-BAPTA-JF549-HaloTag ligand]",Kd,[3],290 nM
same,ΔF/F0,[3]; in vitro,14 and 13.8
same,ϕsat,[4],0.74
same,λmax,[5],550 nm
same,λem,[5],574 nm
"O=C(O)CN(CC(=O)O)c1ccccc1OCCOc1cc(NC(=O)C2CC/[N+]2=c2/ccc3c(-c4ccccc4C(=O)[O-])c4ccc(N5CCC5)cc4oc-3c2)ccc1N(CC(=O)O)CC(=O)O (stereo not drawn) [Compound 6, 2″-BAPTA-JF549]",Kd,[3],270 nM
same,ΔF/F0,[3]; in vitro,27.7
same,ϕsat,[4],0.45
same,λmax,[5],542 nm
same,λem,[5],566 nm
"CN(C(=O)c1cccc(C(=O)O)c1-c1c2ccc(=[N+]3CCC3)cc-2oc2cc(N3CCC3)ccc12)c1ccc(N(CC(=O)O)CC(=O)O)c(OCCOc2ccccc2N(CC(=O)O)CC(=O)O)c1 [Compound 5, 7-MeBAPTA-JF549]",Kd,[3],570 nM
same,ΔF/F0,[3]; in vitro,14
same,ϕsat,[4],0.18
same,λmax,[5],565 nm
same,λem,[5],583 nm
"C[Si]1(C)c2cc(N3CCC3)ccc2C2(OC(=O)c3ccc(C(=O)NCCOCCOCCCCCCCl)cc32)c2ccc(N3CC(C(=O)Nc4ccc(N(CC(=O)O)CC(=O)O)c(OCCOc5ccccc5N(CC(=O)O)CC(=O)O)c4)C3)cc21 (stereo not drawn) [Compound 13, 3″-BAPTA-JF646-HaloTag ligand]",Kd,[3],280 nM
same,ΔF/F0,[3]; in vitro,7.8
same,ϕsat,[4],0.58
same,increase in fluorescence upon binding to HaloTag,HaloTag protein,2.4 fold
same,λmax,[5],646 nm
same,λem,[5],666 nm
Oregon Green BAPTA-1 [Compound 1],Kd,[7],170 nM
same,ΔF/F0,[7],14
"O=C(O)CN(CC(=O)O)c1ccc(NC(=O)C2CN(c3ccc4c(-c5ccccc5C(=O)O)c5ccc(=[N+]6CCC6)cc-5oc4c3)C2)cc1OCCOc1cc(NC(=O)C2C[N+](=c3ccc4c(-c5ccccc5C(=O)O)c5ccc(N6CCC6)cc5oc-4c3)C2)ccc1N(CC(=O)O)CC(=O)O (stereo not drawn) [Compound 9, 3″-BAPTA-bisJF549]",ΔF/F0,[3]; in vitro,75.0
same,ϕsat,[4],0.20
same,λmax,[5],512-549 nm
same,λem,[5],570 nm
"O=C(O)CN(CC(=O)O)c1ccccc1OCCOc1cc(NC(=O)c2ccc(C(=O)[O-])c(-c3c4ccc(=[N+]5CCC5)cc-4oc4cc(N5CCC5)ccc34)c2)ccc1N(CC(=O)O)CC(=O)O [Compound 4, 6-BAPTA-JF549]",improvement in ΔF/F0 compared to 3,[3]; in vitro,2 fold
same,Kd,[3],350 nM
same,ΔF/F0,[3]; in vitro,4.6
same,ϕsat,[4],0.78
same,λmax,[5],555 nm
same,λem,[5],576 nm
Calcium Orange [Compound 2],λem,[8]; literature value (ref. 15),574 nm
same,λmax,[8]; literature value (ref. 15),549 nm
same,excitation maxima (λex),[8]; literature value,549 nm
same,ϕsat,[9],0.33
same,Kd,[7],185 nM
same,ΔF/F0,[7],3
"O=C(O)CN(CC(=O)O)c1ccccc1OCCOc1cc(NC(=O)C2C[N+](=c3ccc4c(-c5ccccc5C(=O)[O-])c5ccc(N6CCC6)cc5oc-4c3)C2)ccc1N(CC(=O)O)CC(=O)O (stereo not drawn) [Compound 7, 3″-BAPTA-JF549]",Kd,[3],310 nM
same,ΔF/F0,[3]; in vitro,15.0
same,ϕsat,[4],0.75
same,red-shift of λex and λem relative to compound 1,[5],50 nm
same,λmax,[5],546 nm
same,λem,[5],569 nm
